Assay results reported in US10870646B2, “Oxazolidinones and pharmaceutical compositions thereof for treating bacterial infections, including infection of Mycobacterium tuberculosis” (University of St. Thomas, priority 2017, dated 2020).
Values after ≈ are worked out from the molar mass of the structure shown. Where two headings read alike, the source gives them in different places.

Assays:
[1] = tested on: Staphylococcus aureus; assay: MIC90 broth microdilution; format: cell-based; conditions: for MIC90: Staphylococcus aureus
[2] = tested on: Acinetobacter baumannii ACBA; assay: MIC90 broth microdilution; format: cell-based
[3] = tested on: Acinetobacter baumannii 6M-1b; assay: MIC90 broth microdilution; format: cell-based
[4] = tested on: Pseudomonas aeruginosa; assay: MIC90 broth microdilution; format: cell-based; conditions: for MIC90: Pseudomonas aeruginosa
[5] = tested on: Enterococcus faecalis; assay: MIC90 broth microdilution; format: cell-based; conditions: for MIC90: Enterococcus faecalis
[6] = tested on: Klebsiella pneumoniae; assay: MIC90 broth microdilution; format: cell-based; conditions: for MIC90: Klebsiella pneumoniae
[7] = tested on: Mycobacterium tuberculosis H37Rv; assay: MIC90 broth macrodilution; format: cell-based
[8] = tested on: Acinetobacter baumannii ATCC 19606; assay: MIC90 broth microdilution; format: cell-based; conditions: ATCC19606
[9] = tested on: Enterobacter cloacae; assay: MIC90 broth microdilution; format: cell-based; conditions: for MIC90: Enterobacter cloacae
[10] = tested on: Mycobacterium abscessus; assay: MIC90 broth microdilution; format: cell-based; conditions: for MIC90: Mycobacteroides abscessus
[11] = tested on: Mycobacterium avium; assay: MIC90 broth microdilution; format: cell-based; conditions: for MIC90: Mycobacterium avium
[12] = tested on: Mycobacterium tuberculosis; conditions: cited from earlier work; for MIC90: Mycobacterium tuberculosis, strain not stated, Kaushik et al. 2015 cited after the table
[13] = tested on: E. faecalis; format: cell-based, Enterococcus faecalis
[14] = tested on: E. faecalis; assay: Checkerboard titration assay (drug-drug interaction); format: cell-based, Enterococcus faecalis; conditions: combined with biapenem, faropenem and tebipenem
[15] = tested on: S. aureus; assay: as above; format: cell-based, Staphylococcus aureus; conditions: combined with biapenem, faropenem and tebipenem
[16] = tested on: S. aureus; assay: Minimum bactericidal concentration (MBC99.9); format: cell-based, Staphylococcus aureus; conditions: up to 8 times MIC90
[17] = tested on: S. aureus; format: cell-based, Staphylococcus aureus
[18] = tested on: Mtb; assay: Checkerboard titration assay (drug-drug interaction); format: cell-based, Mycobacterium tuberculosis; conditions: combined with isoniazid or rifampicin
[19] = tested on: E. faecalis; assay: Minimum bactericidal concentration (MBC99.9); format: cell-based, Enterococcus faecalis; conditions: up to 8 times MIC90
[20] = tested on: Mtb H37Rv; assay: Minimum bactericidal concentration (MBC99.9); format: cell-based, Mycobacterium tuberculosis
[21] = tested on: S. aureus; conditions: Zurenko et al. 1996; cited from earlier work
[22] = Acinetobacter baumannii ACBA, patient isolate
[23] = Acinetobacter baumannii ACBA, patient isolate, read-out: MIC90
[24] = Acinetobacter baumannii 6M-1b, environmental isolate
[25] = Mycobacterium tuberculosis H37Rv, read-out: MIC90
[26] = Acinetobacter baumannii ATCC 19606, read-out: MIC90
[27] = Mycobacterium abscessus, read-out: MIC90

`C[C@@H](O)[C@H]1C(=O)N2C(C(=O)O)=C(S[C@@H]3CN[C@H](C(=O)N(C)C)C3)[C@H](C)[C@H]12` [Meropenem, reference compound] showed an MIC90 ([1]; read-out: MIC90) of 0.06 to 0.13 µg/mL (≈ 0.156 to 0.339 µM), an MIC90 [2, 22] of over 64 µg/mL and an MIC90 [2, 23] of over 64 µg/mL. The MIC90 [3, 24] was 1 to 2 µg/mL, the MIC90 ([4]; read-out: MIC90) was 0.25 to 0.5 µg/mL (≈ 0.652 to 1.3 µM) and the MIC90 ([5]; read-out: MIC90) was 4 to 8 µg/mL (≈ 10.4 to 20.9 µM). The MIC90 ([6]; read-out: MIC90) was under 0.06 µg/mL, the MIC90 [7, 25] was 4 to 8 µg/mL (≈ 10.4 to 20.9 µM) and the MIC90 [8, 26] was over 64 µg/mL. For the same compound, the MIC90 ([9]; read-out: MIC90) was 0.13 to 0.25 µg/mL (≈ 0.339 to 0.652 µM), the MIC90 [10, 27] was over 64 µg/mL and the MIC90 ([11]; read-out: MIC90) was over 64 µg/mL.
In the case of `C[C@@H](O)[C@H]1C(=O)N2C(C(=O)O)=C([C@H]3CCCO3)S[C@H]12` [Faropenem], the MIC90 ([1]; read-out: MIC90) is listed as 0.015 to 0.03 µg/mL (≈ 0.0526 to 0.105 µM), the MIC90 [12] is listed as 2.5 to 5.0 µg/mL and the MIC90 ([5]; read-out: MIC90) is listed as 0.25 to 0.5 µg/mL (≈ 0.876 to 1.75 µM).
With `CC(=O)NC[C@H]1CN(c2ccc3c(c2)Oc2ccccc2O3)C(=O)O1` [Compound T145] the “selection of spontaneous resistant mutants” value [13] was “failed to produce distinct colonies”, the “drug-drug interaction (synergy, indifference, antagonism)” value [14] was “indifferent” and the “activity against growth (in words)” value [1] was “potent activity”. The MIC90 [1] was 0.5 to 1 µg/mL (≈ 1.47 to 2.94 µM), the MIC90 [2] was over 64 µg/mL and the MIC90 ([2]; Acinetobacter baumannii) was over 64 µg/mL. For the same compound, the MIC90 [3] was 0.25 to 0.50 µg/mL, the MIC90 ([3]; Acinetobacter baumannii, 6M1B) was 0.25 to 4 µg/mL (≈ 0.735 to 11.8 µM) and the “activity against growth (in words)” value [4] was “no activity”. For the same compound, the MIC90 [4] was over 64 µg/mL, the “drug-drug interaction (synergy, indifference, antagonism)” value [15] was “indifferent” and the “activity against growth (in words)” value [5] was “potent activity”. The MIC90 [5] was 0.25 to 0.5 µg/mL (≈ 0.735 to 1.47 µM), the “activity against growth (in words)” value [6] was “no activity” and the MIC90 [6] was over 64 µg/mL. The MIC90 ([7]; Mycobacterium tuberculosis, H37RV) was 0.5 to 1 µg/mL (≈ 1.47 to 2.94 µM), the “bactericidal or bacteriostatic activity” value [16] was “bacteriostatic” and the MIC90 ([8]; Acinetobacter baumannii) was 32 to 64 µg/mL (≈ 94 to 188 µM). The “selection of spontaneous resistant mutants” value [17] was “failed to produce distinct colonies”, the “activity against growth (in words)” value [9] was “no activity” and the MIC90 [9] was over 64 µg/mL. The “drug-drug interaction (synergy, indifference, antagonism)” value [18] was “indifferent”, the “activity against growth (in words)” value [10] was “no activity” and the MIC90 [10] was over 64 µg/mL. For the same compound, the “bactericidal or bacteriostatic activity” value [19] was “bacteriostatic”, the “bactericidal or bacteriostatic activity” value ([20]; Mtb, 1, 2, 4 and 8 times MIC90) was “bactericidal activity” and the MBC ([20]; Mycobacterium tuberculosis, Mtb H37Rv) was 2 µg/mL (≈ 5.88 µM). The “activity against growth (in words)” value [11] was “no activity” and the MIC90 [11] was over 64 µg/mL.
Compound `COc1cccc2c1Oc1ccc(N3C[C@H](CNC(C)=O)OC3=O)cc1O2` [Compound T197, (S)—N-((3-(6-methoxydibenzo[b,e][1,4]dioxin-2-yl)-2-oxooxazolidin-5-yl)methyl)acetamide] has an MIC90 ([1]; read-out: MIC90) of 16 to 32 µg/mL (≈ 43.2 to 86.4 µM), an MIC90 [2, 22] of over 64 µg/mL and an MIC90 [2, 23] of over 64 µg/mL. The MIC90 ([4]; read-out: MIC90) was over 64 µg/mL, the MIC90 ([5]; read-out: MIC90) was 8 to 16 µg/mL (≈ 21.6 to 43.2 µM) and the MIC90 ([6]; read-out: MIC90) was over 64 µg/mL. For the same compound, the MIC90 [7, 25] was 8 to 16 µg/mL (≈ 21.6 to 43.2 µM), the MIC90 [8, 26] was over 64 µg/mL and the MIC90 ([9]; read-out: MIC90) was over 64 µg/mL. The MIC90 [10, 27] was over 64 µg/mL and the MIC90 ([11]; read-out: MIC90) was over 64 µg/mL.
For `C[C@@H](O)[C@H]1C(=O)N2C(C(=O)O)=C(SC3CN(C4=NCCS4)C3)[C@H](C)[C@H]12` [Tebipenem], the MIC90 ([1]; read-out: MIC90) is listed as 0.03 to 0.06 µg/mL (≈ 0.0782 to 0.156 µM), the MIC90 [12] is listed as 1.25 to 2.5 µg/mL and the MIC90 ([5]; read-out: MIC90) is listed as 0.25 to 0.5 µg/mL (≈ 0.652 to 1.3 µM).
In the case of `C[C@@H](O)[C@H]1C(=O)N2C(C(=O)[O-])=C(SC3Cn4cnc[n+]4C3)[C@H](C)[C@H]12` (some centres unmarked) [Biapenem], the MIC90 ([1]; read-out: MIC90) is listed as 0.007 to 0.015 µg/mL (≈ 0.02 to 0.0428 µM), the MIC90 [12] is listed as 2.5 to 5.0 µg/mL and the MIC90 ([5]; read-out: MIC90) is listed as 0.25 to 0.5 µg/mL (≈ 0.713 to 1.43 µM).
In the case of `CC(=O)NC[C@H]1CN(c2ccc(N3CCOCC3)c(F)c2)C(=O)O1` [Linezolid, reference compound], the MIC90 ([1]; read-out: MIC90) is reported as 1 to 2 µg/mL (≈ 2.96 to 5.93 µM), the MIC90 [2, 22] is reported as over 64 µg/mL and the MIC90 [2, 23] is reported as over 64 µg/mL. The MIC90 [3, 24] was 0.25 to 0.50 µg/mL, the MIC90 ([3]; Acinetobacter baumannii, 6M1B, Acinetobacter baumannii 6M-1b, environmental isolate, read-out: MIC90) was 0.25 to 4 µg/mL (≈ 0.741 to 11.9 µM) and the MIC90 of linezolid ([12]; Mtb, Rodriguez et al. 2002) was 0.5 to 2.0 µg/mL. The MIC90 ([4]; read-out: MIC90) was over 64 µg/mL, the MIC90 ([5]; read-out: MIC90) was 1 to 2 µg/mL (≈ 2.96 to 5.93 µM) and the MIC90 ([6]; read-out: MIC90) was 16 to 32 µg/mL (≈ 47.4 to 94.9 µM). It also gave an MIC90 [7, 25] of 0.2 to 2 µg/mL (≈ 0.593 to 5.93 µM), an MIC90 [8, 26] of over 64 µg/mL and an MIC90 ([9]; read-out: MIC90) of over 64 µg/mL. For the same compound, the “bactericidal or bacteriostatic activity” value [21] was “bacteriostatic activity”.
